pEC50: −log10 of the molar value. *1 amine or outer side, *2 acyl side, *3 side chain or, on linkers, in order; H or OH if unused. Where a SMILES comes first, the peptide text is derived from it. Side-chain parts run from the residue outwards. [ ]: non-standard residue; d: D form. The star is where a group is joined. C18 diacid = O=C(O)CCCCCCCCCCCCCCCCC(=O)*; C16 diacid = O=C(O)CCCCCCCCCCCCCCC(=O)*; γGlu = O=C(O)[C@H](CCC(=O)[*:2])N[*:1]; C14 diacid = O=C(O)CCCCCCCCCCCCC(=O)*; NMeI = CC[C@H](C)[C@H](NC)C(=O)O; Api = NC1(C(=O)O)CCNCC1; Pentanoyl = CCCCC(=O)*; AEEA = NCCOCCOCC(=O)O; Aib = CC(C)(N)C(=O)O; Butyryl = CCCC(=O)*
What was measured:
human CRF2a receptor = target: T1, human CRF2a receptor (Homo sapiens, UniProt Q13324); assay: Activity at human CRF2a receptor, cAMP functional assay in TeloHEAC cells; format: cell-based; details: TeloHEAC cells stably expressing human CRF2a receptor, relative to urocortin 2 (100 nM = 100%)
T1 construct: expressed in transfected cells; host or cells: TeloHEAC cells
T1 sequence (Q13324 1-411): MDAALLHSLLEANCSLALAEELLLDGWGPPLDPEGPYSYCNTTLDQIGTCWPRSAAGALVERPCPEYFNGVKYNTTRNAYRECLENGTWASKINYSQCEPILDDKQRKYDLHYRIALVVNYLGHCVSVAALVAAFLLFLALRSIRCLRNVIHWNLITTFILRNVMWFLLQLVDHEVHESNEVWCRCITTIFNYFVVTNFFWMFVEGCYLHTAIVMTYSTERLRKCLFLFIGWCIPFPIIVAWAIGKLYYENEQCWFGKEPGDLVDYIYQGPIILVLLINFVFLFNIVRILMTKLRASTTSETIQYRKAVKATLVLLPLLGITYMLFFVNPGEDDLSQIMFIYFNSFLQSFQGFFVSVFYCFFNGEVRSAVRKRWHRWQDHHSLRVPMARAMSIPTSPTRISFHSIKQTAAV
Procedure, shortened: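 TeloHEAC cells stably expressing human CRF2a (10000 cells/well) were treated with 16-point 1:2 compound dilutions in HBSS/20 mM HEPES with IBMX for 30 min at 37° C. cAMP was read by HTRF (665/620 nm ratio). EC50 was the concentration giving 50% activation, with 100 nM urocortin 2 set as 100%.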

CFR1R receptor = target: T2, CFR1R receptor (Homo sapiens, UniProt P34998); assay: Activity at anti-target CFR1R receptor, cAMP assay in CRF1R-overexpression CHO-K1 cells; format: cell-based; details: 100% = Sauvagine at 100 nM; for pEC50: cAMP
T2 construct: host or cells: CHO-K1 (clone 2)
T2 sequence (P34998 24-415): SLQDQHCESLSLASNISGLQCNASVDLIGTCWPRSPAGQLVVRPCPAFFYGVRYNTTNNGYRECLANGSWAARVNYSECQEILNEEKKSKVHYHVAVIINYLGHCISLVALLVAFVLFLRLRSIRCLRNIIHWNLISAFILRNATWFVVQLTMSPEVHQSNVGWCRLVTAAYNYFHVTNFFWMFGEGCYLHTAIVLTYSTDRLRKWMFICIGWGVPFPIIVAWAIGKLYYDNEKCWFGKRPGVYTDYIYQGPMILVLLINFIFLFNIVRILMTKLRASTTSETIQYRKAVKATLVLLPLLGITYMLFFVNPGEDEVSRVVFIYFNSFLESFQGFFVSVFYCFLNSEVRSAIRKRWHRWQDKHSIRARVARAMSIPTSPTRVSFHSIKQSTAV
Procedure, shortened: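 Clone 2 cells were cultured in F12 (Hams)/10% FBS/400 μg/ml G418 at 37° C./5% CO2, frozen in medium with 10% DMSO, and thawed vials used. The protocol followed the TeloHAEC procedure, with 4000 cells/well final and Sauvagine at 100 nM defining 100% activation.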

| SMILES | pEC50 (human CRF2a receptor) | Emax (% I) (CFR1R receptor) | pEC50 (CFR1R receptor) |
| --- | --- | --- | --- |
| CCCCC(=O)N[C@H](C(=O)N[C@@H](CC(C)C)C(=O)N[C@@H](CO)C(=O)N[C@@H](CC(C)C)C(=O)N[C@@H](CC(=O)O)C(=O)N[C@@H](C(=O)N1CCC[C@H]1C(=O)N[C@H](C(=O)N[C@@H](CCCCN)C(=O)N[C@@H](CC(C)C)C(=O)N[C@@H](CCCCNC(=O)COCCOCCNC(=O)COCCOCCNC(=O)CC[C@H](NC(=O)CCCCCCCCCCCCCCCCC(=O)O)C(=O)O)C(=O)N[C@@H](CCCCN)C(=O)N[C@H](C(=O)N[C@@H](CC(C)C)C(=O)N[C@@H](CC(C)C)C(=O)N[C@@H](CCC(=O)O)C(=O)N[C@@H](CCC(N)=O)C(=O)N[C@@H](CCC(=O)O)C(=O)N[C@@H](CCCCN)C(=O)N[C@@H](CCC(N)=O)C(=O)N[C@@H](CCCCN)C(=O)N[C@@H](CCCCN)C(=O)N[C@@H](CCC(N)=O)C(=O)N[C@@H](CCCNC(=N)N)C(=O)N[C@@H](CCC(=O)O)C(=O)N[C@@H](CCC(N)=O)C(=O)N[C@@H](C)C(=O)N[C@@H](CCC(=O)O)C(=O)N[C@H](C(=O)N[C@@H](CC(N)=O)C(=O)NC(C)(C)C(=O)N[C@@H](CCC(N)=O)C(=O)N[C@H](C(=O)N[C@@H](CC(C)C)C(=O)N[C@@H](C)C(=O)N[C@@H](CCC(N)=O)C(=O)N[C@H](C(N)=O)C(C)C)[C@@H](C)CC)[C@@H](C)O)[C@@H](C)CC)[C@@H](C)CC)C(C)C)C(C)C [compound 201] (Pentanoyl-VLSLD[dV]PIKLK([AEEA-AEEA-γGlu-C18 diacid])KILLEQEKQKKQREQAETN[Aib]QILAQV-NH2) | 8.86 | 5 | < 6.60 |
| CC[C@H](C)[C@H](N)C(=O)N[C@H](C(=O)N[C@@H](CC(C)C)C(=O)N[C@@H](CO)C(=O)N[C@@H](CC(C)C)C(=O)N[C@@H](CC(=O)O)C(=O)N[C@@H](C(=O)N1CCC[C@H]1C(=O)N[C@H](C(=O)N[C@@H](CCCCN)C(=O)N[C@@H](CC(C)C)C(=O)N[C@@H](CCCCNC(=O)CC[C@H](NC(=O)CCCCCCCCCCCCCCC(=O)O)C(=O)O)C(=O)N[C@@H](CCC(N)=O)C(=O)N[C@H](C(=O)N[C@@H](CC(C)C)C(=O)N[C@@H](CC(C)C)C(=O)N[C@@H](CCCCN)C(=O)N[C@@H](CCC(N)=O)C(=O)N[C@@H](CCC(=O)O)C(=O)N[C@@H](CCCNC(=N)N)C(=O)N[C@@H](CCC(N)=O)C(=O)N[C@@H](CCCCN)C(=O)N[C@@H](CCCCN)C(=O)N[C@@H](CCC(N)=O)C(=O)N[C@@H](CCCNC(=N)N)C(=O)N[C@@H](CCC(=O)O)C(=O)N[C@@H](CCC(N)=O)C(=O)N[C@@H](C)C(=O)N[C@@H](CCC(=O)O)C(=O)N[C@@H](CCCCN)C(=O)N[C@@H](CC(N)=O)C(=O)N[C@@H](CCCCN)C(=O)N[C@@H](CCC(N)=O)C(=O)N[C@H](C(=O)N[C@@H](CC(C)C)C(=O)N[C@@H](CCC(=O)O)C(=O)N[C@@H](CCC(N)=O)C(=O)N[C@H](C(N)=O)C(C)C)[C@@H](C)CC)[C@@H](C)CC)[C@@H](C)CC)C(C)C)C(C)C [compound 151] (H-IVLSLD[dV]PIKLK([γGlu-C16 diacid])QILLKQERQKKQREQAEKNKQILEQV-NH2) | 9.92 | 53 |  |

Continued by rising pEC50 (human CRF2a receptor), values first:

| pEC50 (human CRF2a receptor) | Emax (% I) (CFR1R receptor) | pEC50 (CFR1R receptor) | SMILES |
| --- | --- | --- | --- |
| 7.79 | −6 | < 6.60 | CC[C@H](C)[C@H](NC(C)=O)C(=O)N[C@H](C(=O)N[C@@H](CC(C)C)C(=O)N[C@@H](CO)C(=O)N[C@@H](CC(C)C)C(=O)N[C@@H](CC(=O)O)C(=O)N[C@@H](C(=O)N1CCC[C@H]1C(=O)N[C@H](C(=O)N[C@@H](CCCCN)C(=O)N[C@@H](CC(C)C)C(=O)N[C@@H](CCCCNC(=O)COCCOCCNC(=O)COCCOCCNC(=O)CC[C@H](NC(=O)CCCCCCCCCCCCC(=O)O)C(=O)O)C(=O)N[C@@H](CCCCN)C(=O)N[C@H](C(=O)N[C@@H](CC(C)C)C(=O)N[C@@H](CC(C)C)C(=O)N[C@@H](CCC(=O)O)C(=O)N[C@@H](CCC(N)=O)C(=O)N[C@@H](CCC(=O)O)C(=O)N[C@@H](CCCCN)C(=O)N[C@@H](CCC(N)=O)C(=O)N[C@@H](CCCCN)C(=O)N[C@@H](CCCCN)C(=O)N[C@@H](CCC(N)=O)C(=O)N[C@@H](CCCNC(=N)N)C(=O)N[C@@H](CCC(=O)O)C(=O)N[C@@H](CCC(N)=O)C(=O)N[C@@H](C)C(=O)N[C@@H](CCC(=O)O)C(=O)N[C@H](C(=O)N[C@@H](CC(N)=O)C(=O)NC1(C(=O)N[C@@H](CCC(N)=O)C(=O)N[C@H](C(=O)N[C@@H](CC(C)C)C(=O)N[C@@H](C)C(=O)N[C@@H](CCC(N)=O)C(=O)N[C@H](C(N)=O)C(C)C)[C@@H](C)CC)CCNCC1)[C@@H](C)O)[C@@H](C)CC)[C@@H](C)CC)C(C)C)C(C)C [compound 172] (Ac-IVLSLD[dV]PIKLK([AEEA-AEEA-γGlu-C14 diacid])KILLEQEKQKKQREQAETN[Api]QILAQV-NH2) |
| 8.98 | 4 | < 6.60 | CC[C@H](C)[C@H](NC)C(=O)N[C@H](C(=O)N[C@@H](CC(C)C)C(=O)N[C@@H](CO)C(=O)N[C@@H](CC(C)C)C(=O)N[C@@H](CC(=O)O)C(=O)N[C@@H](C(=O)N1CCC[C@H]1C(=O)N[C@H](C(=O)N[C@@H](CCCCN)C(=O)N[C@@H](CC(C)C)C(=O)N[C@@H](CCCCNC(=O)CC[C@H](NC(=O)CCCCCCCCCCCCCCC(=O)O)C(=O)O)C(=O)N[C@@H](CCCCN)C(=O)N[C@H](C(=O)N[C@@H](CC(C)C)C(=O)N[C@@H](CC(C)C)C(=O)N[C@@H](CCC(=O)O)C(=O)N[C@@H](CCC(N)=O)C(=O)N[C@@H](CCC(=O)O)C(=O)N[C@@H](CCCCN)C(=O)N[C@@H](CCC(N)=O)C(=O)N[C@@H](CCCCN)C(=O)N[C@@H](CCCCN)C(=O)N[C@@H](CCC(N)=O)C(=O)N[C@@H](CCCNC(=N)N)C(=O)N[C@@H](CCC(=O)O)C(=O)N[C@@H](CCC(N)=O)C(=O)N[C@@H](C)C(=O)N[C@@H](CCC(=O)O)C(=O)N[C@H](C(=O)N[C@@H](CC(N)=O)C(=O)N[C@H](C(=O)N[C@@H](CCC(N)=O)C(=O)N[C@H](C(=O)N[C@@H](CC(C)C)C(=O)N[C@@H](C)C(=O)N[C@@H](CCC(N)=O)C(=O)N[C@H](C(N)=O)C(C)C)[C@@H](C)CC)C(C)C)[C@@H](C)O)[C@@H](C)CC)[C@@H](C)CC)C(C)C)C(C)C [compound 66] (H-[NMeI]VLSLD[dV]PIKLK([γGlu-C16 diacid])KILLEQEKQKKQREQAETNVQILAQV-NH2) |
| 9.85 | 22 | < 6.60 | CCCC(=O)N[C@H](C(=O)N[C@@H](CC(C)C)C(=O)N[C@@H](CO)C(=O)N[C@@H](CC(C)C)C(=O)N[C@@H](CC(=O)O)C(=O)N[C@@H](C(=O)N1CCC[C@H]1C(=O)N[C@H](C(=O)N[C@@H](CCCCN)C(=O)N[C@@H](CC(C)C)C(=O)N[C@@H](CCCCNC(=O)CC[C@H](NC(=O)CCCCCCCCCCCCCCC(=O)O)C(=O)O)C(=O)N[C@@H](CCCCN)C(=O)N[C@H](C(=O)N[C@@H](CC(C)C)C(=O)N[C@@H](CC(C)C)C(=O)N[C@@H](CCC(=O)O)C(=O)N[C@@H](CCC(N)=O)C(=O)N[C@@H](CCC(=O)O)C(=O)N[C@@H](CCCCN)C(=O)N[C@@H](CCC(N)=O)C(=O)N[C@@H](CCCCN)C(=O)N[C@@H](CCCCN)C(=O)N[C@@H](CCC(N)=O)C(=O)N[C@@H](CCCNC(=N)N)C(=O)N[C@@H](CCC(=O)O)C(=O)N[C@@H](CCC(N)=O)C(=O)N[C@@H](C)C(=O)N[C@@H](CCC(=O)O)C(=O)N[C@H](C(=O)N[C@@H](CC(N)=O)C(=O)N[C@@H](CCCCN)C(=O)N[C@@H](CCC(N)=O)C(=O)N[C@H](C(=O)N[C@@H](CC(C)C)C(=O)N[C@@H](C)C(=O)N[C@@H](CCC(N)=O)C(=O)N[C@H](C(N)=O)C(C)C)[C@@H](C)CC)[C@@H](C)O)[C@@H](C)CC)[C@@H](C)CC)C(C)C)C(C)C [compound 36] (Butyryl-VLSLD[dV]PIKLK([γGlu-C16 diacid])KILLEQEKQKKQREQAETNKQILAQV-NH2) |

Source: patent US20260001928A1 (CORTERIA PHARMACEUTICALS, priority 2022, published 2026)
